Measured values reported in patent US20250375450A1, “SMARCA2/4 INHIBITION AS A STRATEGY TO TREAT TUMORS THAT HARBOR ABERRANT BAF ASSEMBLIES” (BOARD OF REGENTS, THE UNIVERSITY OF TEXAS SYSTEM, priority 2022, published 2025).

Tests used:
Assay type in all cases: biochemical
SMARCA2 [1] = biological target: T1, SMARCA2 (Homo sapiens, UniProt P51531); assay: High-throughput screen (HTS) of 40,000 compounds, ATPase assay; conditions: HTS against human SMARCA2
T1 construct: The SMARCA2-1 gene (amino acids 437-1493) encompassing all domains; made in house; host or cells: expiSF9 insect cells (baculovirus, pFASTBac1)
T1 sequence (P51531 437-1493): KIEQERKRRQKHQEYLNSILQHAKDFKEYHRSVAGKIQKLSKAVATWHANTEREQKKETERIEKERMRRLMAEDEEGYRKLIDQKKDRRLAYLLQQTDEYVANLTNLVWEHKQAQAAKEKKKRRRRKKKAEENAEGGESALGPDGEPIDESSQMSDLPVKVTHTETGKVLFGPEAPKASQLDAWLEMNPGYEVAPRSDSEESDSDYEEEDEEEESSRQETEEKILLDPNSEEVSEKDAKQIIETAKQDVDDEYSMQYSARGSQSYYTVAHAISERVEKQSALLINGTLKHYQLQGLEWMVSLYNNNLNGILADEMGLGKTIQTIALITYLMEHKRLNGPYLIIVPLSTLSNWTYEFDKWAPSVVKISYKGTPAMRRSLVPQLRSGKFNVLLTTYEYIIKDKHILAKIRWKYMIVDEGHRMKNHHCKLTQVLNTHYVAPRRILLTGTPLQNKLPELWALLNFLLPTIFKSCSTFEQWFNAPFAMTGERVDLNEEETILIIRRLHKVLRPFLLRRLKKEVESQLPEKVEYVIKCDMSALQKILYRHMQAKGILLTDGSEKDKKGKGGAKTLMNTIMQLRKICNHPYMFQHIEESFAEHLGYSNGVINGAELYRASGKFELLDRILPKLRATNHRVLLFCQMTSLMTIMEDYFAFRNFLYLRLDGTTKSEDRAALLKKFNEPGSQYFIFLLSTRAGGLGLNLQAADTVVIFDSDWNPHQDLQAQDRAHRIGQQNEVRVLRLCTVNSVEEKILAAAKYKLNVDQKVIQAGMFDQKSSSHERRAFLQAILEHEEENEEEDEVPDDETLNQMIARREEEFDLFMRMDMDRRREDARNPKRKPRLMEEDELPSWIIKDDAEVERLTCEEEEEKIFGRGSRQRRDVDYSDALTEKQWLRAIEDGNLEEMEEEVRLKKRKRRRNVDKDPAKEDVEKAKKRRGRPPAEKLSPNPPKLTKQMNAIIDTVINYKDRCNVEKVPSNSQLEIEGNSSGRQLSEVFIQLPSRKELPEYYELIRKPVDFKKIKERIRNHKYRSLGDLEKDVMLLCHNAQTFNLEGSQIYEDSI
Text: The SMARCA2-1 gene (amino acids 437-1493) encompassing all domains (HAS, BRK, ATPase and Bromodomain) required for DNA binding and ATPase activity were cloned into a pFASTBac1 plasmid for insect cell expression (FIG. 2A). In brief, one positive colony was selected and grown to produce enough bacmid DNA. The purified bacmid DNA was used to transfect expiSF9 insect cells using ExpiFectamine protocol as recommended by the manufacturer (Invitrogen). The P0 virus was first generated from the transfected cells, which was subsequently used to generate a P1 virus stock to have enough virus for several rounds of infections and/or large-scale production of SMARCA2-1 enzyme. Next, the experimental conditions were optimized for highest expression of this enzyme and the cultures scaled up to express and purify the enzyme by successive passage of soluble fraction through affinity, ion-exchange, and size exclusion chromatography steps (FIG. 2B). Next, a 29-mer double stranded DNA termed as DNA_EEPD1 (sequence below) was used to measure ATPase activity of SMARCA2 (FIG. 2C and FIG. 2D) and its inhibition by the small molecules described herein (FIG. 4D).
(§1) In brief, the disclosed ATPase assay is based on the inorganic phosphate (Pi) release from the enzymatic reaction, wherein the substrate 2-amino-6-mercapto-7-methylpurine ribose (MESG) is converted by purine phosphorylase (PNP) to ribose 1-phosphate and 2-amino-6-mercapto-7-methylpurine. This conversion changes the spectrophotometric shift of MSEG absorbance from 330 nm to 360 nm (FIG. 1C and FIG. 1D).
Briefly, human SMARCA2 was purified, and a high-throughput screen (HTS) of 40,000 compounds was conducted. […] When cells reached 90% confluency, cells were harvested, washed twice in 1×PBS, counted using trypan blue exclusion method. […] Cells were monitored for 72 hrs. by live cell imaging method (Incucyte S3) taking images every two hours. The confluency was determined and plotted against time (hours) by using Prism software.

SMARCA2 [2] = biological target: T1, SMARCA2; assay: Dose response experiment, ATPase assay
Text: The SMARCA2-1 gene (amino acids 437-1493) encompassing all domains (HAS, BRK, ATPase and Bromodomain) required for DNA binding and ATPase activity were cloned into a pFASTBac1 plasmid for insect cell expression (FIG. 2A). In brief, one positive colony was selected and grown to produce enough bacmid DNA. The purified bacmid DNA was used to transfect expiSF9 insect cells using ExpiFectamine protocol as recommended by the manufacturer (Invitrogen). The P0 virus was first generated from the transfected cells, which was subsequently used to generate a P1 virus stock to have enough virus for several rounds of infections and/or large-scale production of SMARCA2-1 enzyme. […]
as §1
Exemplary compounds were evaluated for their ability to inhibit human SMARCA2 in ATPase assays as detailed in Table 2 below. […]

SMARCA2 [3] = biological target: T1, SMARCA2; assay: Secondary ATPase assay
Procedure: Exemplary compounds were evaluated for their ability to inhibit human SMARCA2 in ATPase assays as detailed in Table 2 below. Dose response curves for compound nos.

| % ATPase activity in HTS (SMARCA2 [1]) [%] | IC50 (SMARCA2 [2]) [µM] | IC50 (SMARCA2 [3]) [µM] | SMILES |
| --- | --- | --- | --- |
| 97.3 | – | – | O[C@@H]1CC[C@H](Nc2nc(NCc3ccc(Cl)c(Cl)c3)c3ccccc3n2)C1 [Compound 6] |
| 26.9 | 25.3 | – | COc1cc2nc(NC3CCCC3)nc(NCc3ccc(Cl)c(Cl)c3)c2cc1OC [Compound 7] |
| 10.6 | 14.8 | 5 | Clc1ccc(CNc2nc(NC3CCCC3)nc3ccccc23)cc1Cl [Compound 8] |
